Laboratory results from patent US6630165B2, “Methods for providing effective reboxetine therapy with once-a-day dosing” (priority 1999, dated 2003).

Legend:
[1] = reboxetine elimination half-life and time to steady state; format: in vivo; details: about four elimination half lives after initiation of continuous intermittent dosing
Procedure: Generally, continuous dosing for a period equal to about four elimination half lives is required to obtain steady-state conditions. Accordingly, steady-state conditions are approached at approximately 52 hours following initiation of a continuous intermittent dosing regimen. Mean steady-state plasma reboxetine concentrations following dosing every 24 hours with 4 mg doses of reboxetine methanesulfonate in two different sustained release dosage forms, having T90 values of about 9 hours and about 18 hours, respectively, and following dosing every 12 hours with 2 mg doses of reboxetine methanesulfonate (total daily dose=4 mg) in an immediate release dosage form for a period of four days (96 hours) were simulated.

[2] = in vivo; cited from earlier work

CCOc1ccccc1OC(c1ccccc1)C1CNCCO1 (stereo not drawn) [Reboxetine, 2-[α(2-ethoxyphenoxy)benzyl]morpholine]
time at which steady-state conditions are approached [1]: approximately 52 hours
elimination half-life (t1/2) [2]: about 13 hours
